The subject of series [1] is SK-APP cells. The series is described as follows: Aβ40 and Aβ42 levels in SK-APP cells (sandwich ELISA). In kind it is cell-based, human. The conditions noted are these: 10 μM, 48 h treatment. As to the method:
page 35: enzyme concentration (1 U/mL). Inhibitor screening at 10 μM. The mixture was incubated for 60 min at 25 °C under dark conditions and then stopped with 2.5 M sodium acetate. Fluorescence was measured with a FLUOstar Optima (BMG Labtechnologies GmbH, Offenburg, Germany) microplate reader at 545 nm excitation and 585 nm emission. Evaluation of BACE Inhibitors Kinetics. To evaluate the mechanism of BACE1 inhibition of the compounds, substrate-dependent kinetic experiments were performed. BACE activity were measured at five different concentrations substrate (1000 -62,5 μM) in the absence or presence of the select inhibitor at two different concentrations. The results are presented as double reciprocal Lineweaver-Burk plots (1/V vs 1/[S]) Figure S1. Cell culture and treatments. SK-N-MC cells stably expressing the human isoform APP695 (SK-APP cell line […]1) were generated by transfection of SK-N-MC cells with a pCDNA3-APP expression vector, and kindly provided by Dr. MJ Bullido. These cells were cultured in DMEM (Thermo Fisher) medium supplemented with 10% FBS (Thermo Fisher), 1 mM glutamine (Sigma- Aldrich), and 100 unit/ml penicillin (Lonza) and […] streptomycin (Lonza). Cell cultures were maintained in a 5% CO2, humidified atmosphere at 37 °C. SH-SY5Y cells were obtained from the American Type Culture Collection and grown in DMEM media (Gibco), supplemented with 10% foetal bovine serum, and 1% penicillin/streptomycin (Invitrogen). The cells were grown at 37 °C in a humidified 5% CO2 atmosphere. For the treatments, all the compounds were dissolved in dimethyl sulfoxide (DMSO, from Sigma) at an initial stock concentration of 10 mM. […] working solutions were obtained from the dilution of the stock solutions in DMEM media (DMSO control solutions were prepared similarly to the compounds). Okadaic acid (OA, Sigma-Aldrich) was dissolved in DMSO at an initial stock concentration of 60 μM and a 250X working solution was obtained from the dilution of the stock solution in DMEM. All the compounds (250x solutions) were added directly into the wells at the indicated final concentrations for 1 hour before the treatment with OA at a final concentration of 30 nM. DMSO was added at the appropriate concentration to the 34 page 36: control-untreated cells. The cells were maintained in the presence of the OA and the different compounds for 24h. Measurement of cell viability. Cell viability assays were carried out using a 3- […] (Sigma-Aldrich) in 96-well cell culture plates. All cells were then incubated with a 0.5 mg/ml MTT solution (Sigma-Aldrich) at 37 °C for 4 h and then with cell lysis […] The absorbance values were determined at 590 nm. Cell viability was expressed as a percent of OD of control cells, the value of which was defined as 100%. Cell viability in SH-SY5Y were carried out following the same procedure but seeding the cells in 24 well multiplates. Absorbance was measured using a Varioskan Flash multiplate reader (Thermo Scientific) at test 550 nm and reference 664 nm wave-lengths. Compound concentration for SK-APP line was 10 μM and for the SH-SY5Y was 1 and 5 μM. Immunoassays. Levels of Aβ40 and Aβ42 were quantified by sandwich ELISAs (Wako, Osaka, Japan) from cellular lysates and conditioned media collected. CNS penetration: in vitro PAMPA-BBB test. Prediction of the brain penetration was evaluated using a parallel artificial membrane permeability assay (PAMPA).1 Nine quality control compounds (mentioned below) of know BBB permeability were included in each experiment to validate the analysis set.2 Commercial drugs […] dissolved in 250 μL of DMSO (Sigma-Aldrich). 25 μL of these compound stock solutions were taken and 225 μL of DMSO and 4750 μL of PBS pH 7.4 buffer were added to reach 5% of DMSO concentration in the experiment and a final […] Compounds to be determined their ability to pass the brain barrier (0.5-1 mg) were dissolved in 250 μL of DMSO and 4750 μL of PBS pH 7.4 was carefully added to afford a final […]
(In general: In an ELISA, binding on a coated surface is turned into a signal by an enzyme label.)

The test system of a further series is SH-SY5Y cells. As to the kind of experiment: Okadaic acid-induced cell death model, viability of SH-SY5Y cells. The format is cell-based, human. The conditions noted are these: OA 30 nM, 24 h, compound 1 and 5 µM. As to the method: (§1) page 35: enzyme concentration (1 U/mL). Inhibitor screening at 10 μM. The mixture was incubated for 60 min at 25 °C under dark conditions and then stopped with 2.5 M sodium acetate. Fluorescence was measured with a FLUOstar Optima (BMG Labtechnologies GmbH, Offenburg, Germany) microplate reader at 545 nm excitation and 585 nm emission. Evaluation of BACE Inhibitors Kinetics. To evaluate the mechanism of BACE1 inhibition of the compounds, substrate-dependent kinetic experiments were performed. BACE activity were measured at five different concentrations substrate (1000 -62,5 μM) in the absence or presence of the select inhibitor at two different concentrations. The results are presented as double reciprocal Lineweaver-Burk plots (1/V vs 1/[S]) Figure S1. Cell culture and treatments. […] The absorbance values were determined at 590 nm. Cell viability was expressed as a percent of OD of control cells, the value of which was defined as 100%. […] Absorbance was measured using a Varioskan Flash multiplate reader (Thermo Scientific) at test 550 nm and reference 664 nm wave-lengths. […] Levels of Aβ40 and Aβ42 were quantified by sandwich ELISAs (Wako, Osaka, Japan) from cellular lysates and conditioned media collected. […] Compounds to be determined their ability to pass the brain barrier (0.5-1 mg) were dissolved in 250 μL of DMSO and 4750 μL of PBS pH 7.4 was carefully added to afford a final […]

Another series has as its target BACE1 (Homo sapiens, UniProt P56817). As to the kind of experiment: BACE1 enzymatic assay (FRET). In kind it is biochemical.
The next series deals with T1, Human recombinant GSK3β (Homo sapiens, UniProt P49841).
T1 construct: purchased Millipore (Millipore Ibérica SAU)
T1 sequence (P49841 whole entry): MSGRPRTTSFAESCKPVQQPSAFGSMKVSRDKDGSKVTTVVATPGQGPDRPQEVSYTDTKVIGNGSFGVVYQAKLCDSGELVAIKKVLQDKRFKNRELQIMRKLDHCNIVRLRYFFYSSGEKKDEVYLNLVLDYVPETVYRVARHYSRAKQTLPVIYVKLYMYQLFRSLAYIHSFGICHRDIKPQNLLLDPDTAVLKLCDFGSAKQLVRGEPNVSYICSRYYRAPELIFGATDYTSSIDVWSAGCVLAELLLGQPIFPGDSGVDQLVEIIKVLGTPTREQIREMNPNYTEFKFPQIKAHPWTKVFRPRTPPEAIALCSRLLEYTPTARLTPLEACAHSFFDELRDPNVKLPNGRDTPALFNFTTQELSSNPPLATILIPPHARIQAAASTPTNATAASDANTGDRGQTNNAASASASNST
The series is described as follows: GSK3β inhibition enzymatic assay (Kinase-Glo). The format is biochemical. On the procedure: GSK3β inhibition enzymatic assay. Human recombinant GSK3β and the pre-phosphorylated polypeptide substrate were purchased from Millipore (Millipore Ibérica SAU). Kinase-Glo Luminescent Kinase Assay was obtained from Promega (Promega Biotech Ibérica, SL). ATP and all other reagents were from Sigma Aldrich (St. Louis, MO). Assay buffer contained 50 mM HEPES (pH 7.5), 1 mM EDTA, 1 mM EGTA, and 15 mM magnesium acetate.
Kinase-Glo assays were performed in assay buffer using black 96-well plates. In a typical assay, 10 μL (10 μM) of test compound (dissolved in DMSO) at 1 mM concentration and diluted in advance in assay buffer to the desired concentration) and 10 μL (20 ng) of enzyme were added to each well followed by 20 μL of assay buffer containing 25 μM substrate and 1 μM ATP. The final DMSO concentration […]
After 30 min incubation at 30 °C, the enzymatic reaction was stopped with 40 μL of Kinase-Glo reagent. Glow-type luminescence was recorded after 10 min using a FLUOstar Optima (BMG
Labtechnologies GmbH, Offenburg, Germany) multimode reader. The activity is proportional to the difference of the total and consumed ATP. The inhibitory activities were calculated based on maximal activities measured in the absence of inhibitor. The IC50 was defined as the concentration of each compound that reduces a 50 % the enzymatic activity with respect to that without inhibitors. […]
(In general: In Kinase-Glo more light means more ATP remaining.)

The target of a further series is T2, LRRK2 (Homo sapiens, UniProt Q5S007).
T2 construct: purchased ThermoFisher (assay run by the company)
T2 sequence (Q5S007 whole entry): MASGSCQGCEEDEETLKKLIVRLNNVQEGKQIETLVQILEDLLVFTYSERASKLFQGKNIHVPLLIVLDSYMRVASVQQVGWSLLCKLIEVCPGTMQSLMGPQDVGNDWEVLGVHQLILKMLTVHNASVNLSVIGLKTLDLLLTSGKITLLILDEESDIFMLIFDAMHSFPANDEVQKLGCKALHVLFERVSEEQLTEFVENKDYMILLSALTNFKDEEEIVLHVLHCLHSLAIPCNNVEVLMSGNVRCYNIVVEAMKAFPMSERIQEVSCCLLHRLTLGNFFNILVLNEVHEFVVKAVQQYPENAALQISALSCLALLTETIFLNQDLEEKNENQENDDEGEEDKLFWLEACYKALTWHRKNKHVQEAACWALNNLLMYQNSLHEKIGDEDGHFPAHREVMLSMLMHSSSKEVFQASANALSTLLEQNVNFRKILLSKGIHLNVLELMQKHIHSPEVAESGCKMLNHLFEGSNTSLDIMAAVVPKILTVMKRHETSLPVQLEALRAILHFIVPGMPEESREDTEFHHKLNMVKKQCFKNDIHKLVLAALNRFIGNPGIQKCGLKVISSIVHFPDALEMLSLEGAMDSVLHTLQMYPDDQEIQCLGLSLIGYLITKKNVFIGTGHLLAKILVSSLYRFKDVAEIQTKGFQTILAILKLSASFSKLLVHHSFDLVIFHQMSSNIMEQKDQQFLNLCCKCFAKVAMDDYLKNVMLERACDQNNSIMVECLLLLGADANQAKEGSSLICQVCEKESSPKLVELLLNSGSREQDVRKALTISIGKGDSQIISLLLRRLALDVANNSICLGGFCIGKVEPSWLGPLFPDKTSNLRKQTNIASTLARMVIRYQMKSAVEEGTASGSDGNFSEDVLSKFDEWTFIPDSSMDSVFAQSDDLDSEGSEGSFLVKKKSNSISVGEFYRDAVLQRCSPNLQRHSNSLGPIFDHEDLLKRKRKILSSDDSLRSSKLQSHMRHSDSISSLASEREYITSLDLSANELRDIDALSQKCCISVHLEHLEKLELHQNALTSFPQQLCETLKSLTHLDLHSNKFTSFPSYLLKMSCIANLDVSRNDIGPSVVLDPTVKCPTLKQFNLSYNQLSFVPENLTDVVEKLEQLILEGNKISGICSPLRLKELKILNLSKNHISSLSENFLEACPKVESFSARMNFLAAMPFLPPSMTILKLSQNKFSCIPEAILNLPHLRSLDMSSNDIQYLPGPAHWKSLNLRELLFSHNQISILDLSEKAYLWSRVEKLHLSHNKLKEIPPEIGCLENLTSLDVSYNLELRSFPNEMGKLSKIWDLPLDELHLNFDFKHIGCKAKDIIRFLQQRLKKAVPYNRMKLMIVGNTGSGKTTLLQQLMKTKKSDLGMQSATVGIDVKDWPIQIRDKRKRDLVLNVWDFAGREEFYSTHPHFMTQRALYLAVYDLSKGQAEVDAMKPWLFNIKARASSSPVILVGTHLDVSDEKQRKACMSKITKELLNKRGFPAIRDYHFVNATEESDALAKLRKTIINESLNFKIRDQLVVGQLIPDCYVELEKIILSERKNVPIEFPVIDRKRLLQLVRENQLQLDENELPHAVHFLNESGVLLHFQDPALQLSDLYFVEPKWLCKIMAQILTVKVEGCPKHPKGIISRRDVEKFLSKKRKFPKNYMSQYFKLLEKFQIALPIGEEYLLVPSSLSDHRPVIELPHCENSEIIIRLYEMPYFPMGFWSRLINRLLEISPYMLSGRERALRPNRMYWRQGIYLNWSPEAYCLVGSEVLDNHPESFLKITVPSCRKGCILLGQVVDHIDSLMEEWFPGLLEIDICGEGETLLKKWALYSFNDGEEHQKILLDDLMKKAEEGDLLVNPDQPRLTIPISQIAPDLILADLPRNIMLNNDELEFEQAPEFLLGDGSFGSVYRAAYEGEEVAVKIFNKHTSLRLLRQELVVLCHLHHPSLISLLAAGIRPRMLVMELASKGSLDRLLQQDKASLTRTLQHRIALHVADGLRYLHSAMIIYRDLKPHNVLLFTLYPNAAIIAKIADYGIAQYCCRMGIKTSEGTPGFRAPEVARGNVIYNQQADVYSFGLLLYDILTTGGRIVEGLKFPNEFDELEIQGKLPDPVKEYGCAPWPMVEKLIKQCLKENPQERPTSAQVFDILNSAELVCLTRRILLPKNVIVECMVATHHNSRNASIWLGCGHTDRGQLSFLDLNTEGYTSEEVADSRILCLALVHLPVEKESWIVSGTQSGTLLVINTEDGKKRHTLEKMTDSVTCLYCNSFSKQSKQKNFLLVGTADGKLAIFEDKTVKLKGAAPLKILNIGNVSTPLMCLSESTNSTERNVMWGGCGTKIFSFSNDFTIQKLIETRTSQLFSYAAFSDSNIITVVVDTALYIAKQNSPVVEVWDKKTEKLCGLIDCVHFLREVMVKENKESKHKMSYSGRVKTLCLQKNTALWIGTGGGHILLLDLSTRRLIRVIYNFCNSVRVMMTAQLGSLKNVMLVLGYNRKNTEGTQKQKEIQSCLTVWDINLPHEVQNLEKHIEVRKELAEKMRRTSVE
The series is described as follows: LRRK2 inhibition enzymatic assay (Adapta, ThermoFisher). The format is biochemical.

The nature of a further series: PAMPA-BBB test. In kind it is in vitro ADME. The conditions noted are these: for Papp at 2.5 h: read-out: Pe exp. Background: PAMPA measures passive passage across an artificial lipid membrane.
For a further series, the target named is CK1δ (Homo sapiens, UniProt P48730). As to the kind of experiment: CK1δ inhibition enzymatic assay (Kinase-Glo). The format is biochemical. On the procedure: CK1δ inhibition enzymatic assay. The “Kinase-Glo” Kit from Promega was used to screen compounds for activity against CK1δ Kinase-Glo assays were performed in assay buffer using black 96-well plates. In a typical assay, 10 μl of test compound (dissolved in DMSO at 1 mM concentration and diluted in advance in assay buffer to the desired concentration) 10 μl (16 ng) of enzyme were added to each well followed by 20 µl of assay buffer containing 0,1 % casein as substrate […]
Chain of CK1δ (P48730 whole entry): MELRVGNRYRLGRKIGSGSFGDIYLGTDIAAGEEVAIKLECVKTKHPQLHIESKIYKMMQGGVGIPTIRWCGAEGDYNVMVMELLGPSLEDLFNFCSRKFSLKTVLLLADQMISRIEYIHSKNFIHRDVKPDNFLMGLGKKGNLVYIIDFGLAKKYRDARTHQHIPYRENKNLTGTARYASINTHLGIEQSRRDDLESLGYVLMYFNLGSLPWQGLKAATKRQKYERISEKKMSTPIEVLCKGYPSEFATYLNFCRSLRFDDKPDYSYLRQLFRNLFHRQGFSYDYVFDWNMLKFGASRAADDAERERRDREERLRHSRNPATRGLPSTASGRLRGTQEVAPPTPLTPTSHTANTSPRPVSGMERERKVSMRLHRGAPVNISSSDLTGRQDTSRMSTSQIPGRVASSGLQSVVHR
exceed 1%. After 60-min incubation at 30°C the enzymatic reaction was stopped […]
with 40 μl of Kinase-Glo reagent. Glow-type luminescence was recorded after 10 min using a FLUOstar Optima (BMG Labtechnologies GmbH, Offenburg, Germany) multimode reader. The activity is proportional to the difference of the total and consumed ATP. The inhibitory activities were calculated on the basis of maximal activities measured in the absence of inhibitor. The IC50 was defined as the concentration of each compound that reduces a 50% the enzymatic activity with respect to that without inhibitors. […]
Ibérica SAU). Kinase-Glo Luminescent Kinase Assay was obtained from Promega (Promega Biotech Ibérica, SL). ATP and all other reagents were from Sigma Aldrich (St. Louis, MO). Assay buffer contained 50 mM HEPES (pH 7.5), 1 mM EDTA, 1 mM EGTA, and 15 mM magnesium acetate. […]

Series [2] concerns SK-APP cells. The series is described as follows: Cell viability (MTT) in SK-APP cells. In kind it is cell-based, human. The conditions noted are these: 10 μM, 48 hours. On the procedure:
as §1

The mark [3] stands for this setting: PAMPA-BBB, PBS pH 7.4/DMSO 95/5, 2.5 h, room temperature.

The values that follow come from publication PMC8457121, “From Kinase Inhibitors to Multitarget Ligands as Powerful Drug Leads for Alzheimer's Disease using Protein‐Templated Synthesis” (Angewandte Chemie (International Ed. in English), 2021).

Molecules are shown by their SMILES.

For orientation: IC50 means the midpoint of a concentration-inhibition curve. One may read the inhibition as the change of the read-out against control, counted positive when it falls.

Chain of BACE1 (P56817 46-501): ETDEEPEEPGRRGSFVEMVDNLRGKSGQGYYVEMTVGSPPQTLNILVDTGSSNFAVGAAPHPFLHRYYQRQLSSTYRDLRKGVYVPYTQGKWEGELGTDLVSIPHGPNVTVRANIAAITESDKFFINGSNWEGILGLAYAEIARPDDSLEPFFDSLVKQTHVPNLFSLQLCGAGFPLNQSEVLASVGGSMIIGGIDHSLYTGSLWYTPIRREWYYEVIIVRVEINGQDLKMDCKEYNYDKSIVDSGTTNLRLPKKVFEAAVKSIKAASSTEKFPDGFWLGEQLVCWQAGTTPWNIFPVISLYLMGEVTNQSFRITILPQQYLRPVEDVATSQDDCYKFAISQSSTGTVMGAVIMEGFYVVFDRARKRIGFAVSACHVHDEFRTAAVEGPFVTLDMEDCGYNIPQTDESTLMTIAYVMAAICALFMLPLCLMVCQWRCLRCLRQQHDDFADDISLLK
Description for BACE1: BACE1 enzymatic assay. BACE1 in vitro assays were carried out using FRET.
μM) carrying the Swedish mutation and containing a rhodamine as a fluorescence donor and a quencher acceptor at each end was used. The intact substrate is weakly fluorescent and becomes highly fluorescent upon enzymatic cleavage.
The assays were conducted in 50 mM sodium acetate buffer, pH 4.5, in a final
Description for PAMPA-BBB test: dissolved in 250 µL of DMSO (Sigma-Aldrich). 25 µL of these compound stock
solutions were taken and 225 µL of DMSO and 4750 µL of PBS pH 7.4 buffer
compound concentration in the range of 0.2 to 1.1 mM. Compounds to be
µL of DMSO and 4750 µL of PBS pH 7.4 was carefully added to afford a final
compound concentration in the range of 0.2 to 1.1 mM. Solutions were filtered
using filter PDVF membrane units (diameter 30 mm, pore size 0.45 μm, Symta).
10 µL of each solution were taken and diluted 10-fold with PBS/DMSO (95/5) for
HPLC-MS analysis. The acceptor 96-well plate (Multiscreen®, catalog no.
MAMCS9610, Millipore) was filled with 180 µL of PBS/DMSO (95/5). The donor
96-well plate (Multiscreen® IP Sterile Plate PDVF membrane, pore size is 0.45
M, catalog no. MAIPS4510, Millipore) was coated with 4 µL 20 mg·mL-1 of
for 5 min and then 180 µL of each compound solution was added. Then the donor
plate was put on the acceptor plate and kept for 2.5 h at room temperature. After
incubation, samples were collected from the acceptor plate and diluted 10-fold
with PBS/DMSO (95/5) for HPLC-MS analysis and compared to HPLC-MS of
initial solutions. Absorbance peak of each compound was determined by MS
detection and was used to calculate the concentration of compounds and
Every sample was analysed in two independent
runs. HPLC-MS was performed using a HPLC-MS equipment from Thermo
Fisher coupled to a Finnigan TM LXQ TM detector. Each compound was
analysed using a Sunfire column C18, 3.5 μm (50 mm x 4.6 mm) and acetonitrile
and Milli-Q water (with 0.1% formic acid) as mobile phase. The standard gradient

On to `CCn1sc(=O)n(Cc2cn(Cc3ccc(C(=O)Nc4nc5ccccc5s4)cc3)nn2)c1=O` [compound 14], for which the “Aβ42 levels in cellular lysates (intracellular)” value in the series with SK-APP cells [1] is recorded as “unchanged”. In addition, in the series on SK-APP cells [1], the “Aβ42 levels in extracellular fluid” value is “significant decrease”. In the series on SH-SY5Y cells, the “Neuroprotection against okadaic acid (OA) toxicity” value was “rescue from the toxic effect of OA”. Moreover, the IC50 on BACE1 was 3.31 ± 0.27 µM; at Human recombinant GSK3β, 2.36 ± 0.27 µM; against LRRK2 it was 0.82 ± 0.14 µM. The CNS prediction entry in “PAMPA-BBB test” (PAMPA-BBB) was “CNS- (CNS‐ (red) for compounds with Pe <1.88×10^−6 cm s^−1)”. In addition, in the series “PAMPA-BBB test” (setting [3]), the Pe exp is given as 0 10-6 cm s-1.

Take `CCn1sc(=O)n(Cc2cn(Cc3ccc(CC(=O)Nc4nc5ccccc5s4)cc3)nn2)c1=O` [compound 15]: the IC50 at CK1δ is 1.25 ± 0.21 µM. For the same molecule, in the series with SK-APP cells [1], the “Aβ40 levels in cellular lysates” value is reported as “decrease”, the “Aβ40 levels in extracellular fluid” value was “decrease”, the “Aβ42 levels in cellular lysates (intracellular)” value is “unchanged” and the “Aβ42 levels in extracellular fluid” value was “significant decrease”. The “Neuroprotection against okadaic acid (OA) toxicity” value with SH-SY5Y cells is “rescue from the toxic effect of OA”. Further, the inhibition at 10 µM at BACE1 (read-out: BACE1 enzyme inhibition at 10 μM) stood at 30%. Further, the IC50 at Human recombinant GSK3β worked out at 3.85 ± 0.32 µM. For the same molecule, in the series “PAMPA-BBB test” (PAMPA-BBB), the CNS prediction entry is listed as “CNS+ (CNS+ (green) for compounds with Pe >3.20×10^−6 cm s^−1)”. For the same molecule, in the series “PAMPA-BBB test” (setting [3]), the Papp at 2.5 h was 5.08 ± 0.63 ×10⁻⁶ cm/s.

For the molecule `O=C(Cc1ccc(Cn2cc(COc3ccc(/N=C4\C(=O)Nc5ccccc54)cc3)nn2)cc1)Nc1nc2ccccc2s1` [compound 16], the IC50 against CK1δ was determined as 6.47 ± 0.68 µM; against BACE1 it was 7.24 ± 0.38 µM; against LRRK2, 13.5 ± 5.23 µM. The CNS prediction entry in “PAMPA-BBB test” (PAMPA-BBB) was “CNS+/CNS- (CNS+/CNS‐ (yellow) for compounds with Pe between both values)”. Moreover, in “PAMPA-BBB test” (setting [3]), the Papp at 2.5 h turned out to be 3.07 ± 0.25 ×10⁻⁶ cm/s. For the same molecule, the “Cell viability of SK-APP cells” value in the series on SK-APP cells [2] was “significant decrease”.

As to `O=C(Cc1ccc(Cn2cc(COc3ccc(C(=O)Nc4nc5ccccc5s4)cc3)nn2)cc1)Nc1nc2ccccc2s1` [compound 17], the inhibition at 10 µM on CK1δ (read-out: CK1δ enzyme inhibition at 10 μM) was 26%. Also, the IC50 against BACE1 was determined as 2.51 ± 0.43 µM; against LRRK2, 7.09 ± 2.22 µM. Moreover, in “PAMPA-BBB test” (PBS pH 7.4 with 5% DMSO), the “Solubility in the conditions of the PAMPA experiment” value was “insoluble”. For the same molecule, the “Cell viability of SK-APP cells” value with SK-APP cells [2] is “significant decrease”.
